Experimental data as given in PubChem BioAssay AID1963858 (Molecular Pharmacology Branch, DTP, NCI, 2024).

Tested on: HOP-62 multicell spheroids with HUVEC/MSC, viability
Assay: Anticancer human tumor HOP-62 cell line growth inhibition [KRAS2];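 further: viability read after a week of compound exposure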;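 on viability, T/C: 100% = DMSO vehicle-treated spheroids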
Details: for IC50: curve of first compound; for viability, T/C: stronger effect = lower value
In short: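 Combination screen of spheroid viability in tumor-cell co-cultures with endothelial (HUVEC) and mesenchymal stem cell stroma. Each agent was tested in half-log dilutions, topping at clinical Cmax or at 10 microM without a known Cmax.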

[1] = second compound 0.1 µM, first compound 0.0316 µM
[2] = second compound 0.316 µM, first compound 0.0316 µM
[3] = second compound 1 µM, first compound 0.0316 µM
[4] = second compound 3.16 µM, first compound 0.0316 µM
[5] = second compound 10 µM, first compound 0.0316 µM

`CC(=O)Nc1cccc(-n2c(=O)n(C3CC3)c(=O)c3c(Nc4ccc(I)cc4F)n(C)c(=O)c(C)c32)c1` + C=CC(=O)N1CCN(c2nc(=O)n(-c3c(C)ccnc3C(C)C)c3nc(-c4c(O)cccc4F)c(F)cc23)C(C)C1 gave an IC50 (second compound 0.1 µM) of 0.78 nM, an IC50 (second compound 0.316 µM) of 0.879 nM and an IC50 (second compound 1 µM) of 0.915 nM. For the same molecule, the IC50 (second compound 3.16 µM) was 0.561 nM, the IC50 (second compound 10 µM) was 0.124 nM and the viability, T/C (second compound 0.1 µM, first compound 0.0001 µM) was 78.5%. For the same molecule, the viability, T/C (second compound 0.1 µM, first compound 0.000316 µM) was 61.2%, the viability, T/C (second compound 0.1 µM, first compound 0.001 µM) was 49.1% and the viability, T/C (second compound 0.1 µM, first compound 0.00316 µM) was 29.7%. It also gave a viability, T/C (second compound 0.1 µM, first compound 0.01 µM) of 18.9%, a viability, T/C [1] of 14.7% and a viability, T/C (second compound 0.316 µM, first compound 0.0001 µM) of 61.6%. The viability, T/C (second compound 0.316 µM, first compound 0.000316 µM) was 72.7%, the viability, T/C (second compound 0.316 µM, first compound 0.001 µM) was 43.8% and the viability, T/C (second compound 0.316 µM, first compound 0.00316 µM) was 30.2%. For the same molecule, the viability, T/C (second compound 0.316 µM, first compound 0.01 µM) was 19.2%, the viability, T/C [2] was 16.8% and the viability, T/C (second compound 1 µM, first compound 0.0001 µM) was 73.8%. For the same molecule, the viability, T/C (second compound 1 µM, first compound 0.000316 µM) was 61.7%, the viability, T/C (second compound 1 µM, first compound 0.001 µM) was 51% and the viability, T/C (second compound 1 µM, first compound 0.00316 µM) was 32%. For the same molecule, the viability, T/C (second compound 1 µM, first compound 0.01 µM) was 22.6%, the viability, T/C [3] was 18.5% and the viability, T/C (second compound 3.16 µM, first compound 0.0001 µM) was 77.2%. For the same molecule, the viability, T/C (second compound 3.16 µM, first compound 0.000316 µM) was 50.6%, the viability, T/C (second compound 3.16 µM, first compound 0.001 µM) was 44.5% and the viability, T/C (second compound 3.16 µM, first compound 0.00316 µM) was 39.4%. The viability, T/C (second compound 3.16 µM, first compound 0.01 µM) was 26.2%, the viability, T/C [4] was 22.1% and the viability, T/C (second compound 10 µM, first compound 0.0001 µM) was 53.8%. The viability, T/C (second compound 10 µM, first compound 0.000316 µM) was 39%, the viability, T/C (second compound 10 µM, first compound 0.001 µM) was 43% and the viability, T/C (second compound 10 µM, first compound 0.00316 µM) was 34.8%. For the same molecule, the viability, T/C (second compound 10 µM, first compound 0.01 µM) was 26.8% and the viability, T/C [5] was 22.8%.

`COc1cc2nccc(Oc3ccc(NC(=O)C4(C(=O)Nc5ccc(F)cc5)CC4)cc3)c2cc1OC` + CNCc1ccccc1-c1csc(C(C)Nc2nc(C)nc3cc(OC)c(OC)cc23)c1 gave an IC50 (second compound 0.1 µM) of 5360 nM, an IC50 (second compound 0.316 µM) of 4800 nM and an IC50 (second compound 1 µM) of 3670 nM. The IC50 (second compound 3.16 µM) was under 31.6 nM, the IC50 (second compound 10 µM) was under 31.6 nM and the viability, T/C [1] was 92.4%. The viability, T/C (second compound 0.1 µM, first compound 0.1 µM) was 94.1%, the viability, T/C (second compound 0.1 µM, first compound 0.316 µM) was 102% and the viability, T/C (second compound 0.1 µM, first compound 1 µM) was 96.3%. It also gave a viability, T/C (second compound 0.1 µM, first compound 3.16 µM) of 76%, a viability, T/C (second compound 0.1 µM, first compound 10 µM) of 19.3% and a viability, T/C [2] of 90.6%. The viability, T/C (second compound 0.316 µM, first compound 0.1 µM) was 82.8%, the viability, T/C (second compound 0.316 µM, first compound 0.316 µM) was 81.7% and the viability, T/C (second compound 0.316 µM, first compound 1 µM) was 86.9%. For the same molecule, the viability, T/C (second compound 0.316 µM, first compound 3.16 µM) was 69.8%, the viability, T/C (second compound 0.316 µM, first compound 10 µM) was 15.2% and the viability, T/C [3] was 74.7%. For the same molecule, the viability, T/C (second compound 1 µM, first compound 0.1 µM) was 79.2%, the viability, T/C (second compound 1 µM, first compound 0.316 µM) was 85.6% and the viability, T/C (second compound 1 µM, first compound 1 µM) was 80.7%. It also gave a viability, T/C (second compound 1 µM, first compound 3.16 µM) of 57.5%, a viability, T/C (second compound 1 µM, first compound 10 µM) of 0.44% and a viability, T/C [4] of 0.34%. For the same molecule, the viability, T/C (second compound 3.16 µM, first compound 0.1 µM) was 0.17%, the viability, T/C (second compound 3.16 µM, first compound 0.316 µM) was 0.13% and the viability, T/C (second compound 3.16 µM, first compound 1 µM) was 0.15%. It also gave a viability, T/C (second compound 3.16 µM, first compound 3.16 µM) of 0.22%, a viability, T/C (second compound 3.16 µM, first compound 10 µM) of 0.14% and a viability, T/C [5] of 0.12%. The viability, T/C (second compound 10 µM, first compound 0.1 µM) was 0.14%, the viability, T/C (second compound 10 µM, first compound 0.316 µM) was 0.12% and the viability, T/C (second compound 10 µM, first compound 1 µM) was 0.11%. For the same molecule, the viability, T/C (second compound 10 µM, first compound 3.16 µM) was 0.12% and the viability, T/C (second compound 10 µM, first compound 10 µM) was 0.19%.
